Test results as given in paper PMC11672137, “High-Affinity Lectin Ligands Enable the Detection of Pathogenic Pseudomonas aeruginosa Biofilms: Implications for Diagnostics and Therapy” (JACS Au, 2024).

Tests used:
[1] = system: P. aeruginosa PAO1 biofilms; assay: In vitro biofilm staining under flow conditions, injection method; format: cell-based, Pseudomonas aeruginosa; settings: 17 μM in channel, 10 min incubation, then flow 3 mL/h for 10-20 min
Method: (§1) P. aeruginosa biofilms were grown under flow conditions and observed by fluorescence microscopy in analogy to Ghanbari et al.[66] To this end, P. aeruginosa PAO1 expressing the red fluorescent protein mCherry[56] was diluted to an OD600 nm of 0.1 and injected into the microfluidics device. After a 30-min settling period, biofilms were grown under a constant laminar flow rate of 3 mL/h per channel. Following 48 h of incubation at 30 °C, dense and mature P. aeruginosa PAO1 biofilms were observed, which were then further used for analysis of the imaging probes.
Two different staining methods were evaluated for the imaging of P. aeruginosa PAO1 biofilms: (I) direct injection of the imaging compounds into the flow system or (II) compound supplementation into the medium and gradual accumulation at the biofilm (Figure S18). […] The flow of compounds 17 and 24 and their arrival in the flow cells were monitored using a fluorescence microscope attached to the flow system. […]
Figure 4 Staining of P. aeruginosa PAO1 biofilms under flow following the injection method. […] Pictures of the same aggregates were recorded prior to compound injection (t−10), during a 10 min incubation period without flow (t0) and during the wash period (constant flow, 3 mL/h) at different time points t5, t10, t15, and t20 (5, 10, 15, and 20 min) using a fluorescence microscope. […]

[2] = system: P. aeruginosa PAO1 biofilms; assay: In vitro biofilm staining under flow conditions, compound supplementation to the medium; format: cell-based, Pseudomonas aeruginosa; settings: 3 mL/h
Method: as §1
To circumvent these technical drawbacks, the addition of compounds to the medium reservoir and retention at the biofilm was pursued. Imaging compounds were added to the medium reservoirs at a concentration of 500 nM, which were continuously pumped (3 mL/h) through the flow cell for 4 h. Compound accumulation at mature P. aeruginosa biofilms was immediately analyzed using fluorescence microscopy. Afterwards, the medium was exchanged, and the biofilms were washed for 30 min (3 mL/h, no compound) to monitor the retention (Figure 5). Furthermore, an analysis using CLSM was also performed after 4 h of accumulation without washing (Figures 5 and S22).
Figure 5 Staining of P. aeruginosa PAO1 biofilms grown under flow conditions with compound supplementation to the medium. Biofilm staining with (A) fluorescein divalent probe 17, (B) fluorescein control 24, (C) BODIPY divalent probe 19, and (D) BDP FL azide control 18 was monitored after 4 h of accumulation under constant flow (3 mL/h) of LB media containing 500 nM of respective compound. Retention of imaging compounds is shown after a subsequent wash period for 30 min with medium (3 mL/h, no compound). Images were recorded by using a fluorescence microscope. CLSM was performed for (E) BODIPY divalent probe 19 and the control (F) BDP FL azide 18 after 4 h of accumulation. Green signal originates from fluorescently labeled probes 17 and 19 and controls 24 and 18. P. aeruginosa constitutively expressing mCherry from pMP7605^56 is shown in red. Z-Stack size, 2 μm. Scale bar = 50 μm.
In vitro biofilm staining under flow conditions
The flow cell experiment was set up in analogy to Ghanbari et al. and in this study, optimized and established for biofilm staining.25 In principle, the experiment is based on an inlet connected to a medium source, a peristaltic pump providing constant medium flow, a flow chamber enabling analysis of bacterial growth and an outlet (waste container/bottle).
The medium used in the flow system was LB diluted by factor 5 containing 60 µg/mL
Gm. Silicone tubings 1.6 mm (ibidi, Germany) were used transporting medium from inlet to the peristaltic pump (Watson-Marlow Fluid Technology Solutions). Stopper hoses (CarlRoth) placed in peristaltic pump were coupled to silicone tubes via connectors (ibidi, Germany).
Stopper hoses are connected to bubble traps (obtained by Claus Sternberg, DTU Copenhagen) via 0.8 mm silicone tubing (ibidi, Germany). Bubble traps were used to remove air from the medium flow and to avoid biofilm disruption. Downstream from the bubble traps, the flow cell (μ-Slide VI 0.4 ibiTreat, ibidi, Germany) was placed into the system and connected to 1.6 mm silicone tubes (ibidi, Germany). The outlet is leading the medium from flow chamber to a waste […]
In order to inoculate the flow cell with P. aeruginosa PAO1 mCherry (pMP7605)23 the silicone tubes upstream and downstream of the flow chamber were pinched off by using commercial plastic clamps. The medium flow was stopped and the flow cell was inoculated by injecting 300 µL of the bacterial suspension (OD600nm of 0.1) into the silicone tubing upstream of the flow chamber. For this, a cannula (0.30 x 12 mm, Sterican) was used. The injection point was sealed with silicone glue. After bacterial settling time of 30 min, the flow was started again and clamps were removed. Growth temperature was regulated by using a heat system (ibidi, […]
Germany). […]

SMILES: O=C(CCc1ccc(O[C@@H]2O[C@H](CO)[C@H](O)[C@H](O)[C@H]2O)cc1)Nc1ccc(CN(CCc2cn(CCOCCOCCOCCNC(=S)Nc3ccc4c(c3)C(=O)OC43c4ccc(O)cc4Oc4cc(O)ccc43)nn2)Cc2ccc(NC(=O)CCc3ccc(O[C@@H]4O[C@H](CO)[C@H](O)[C@H](O)[C@H]4O)cc3)cc2)cc1 [compound 17]
- Retention of fluorescence at biofilm during wash [1]: retained at the P. aeruginosa biofilm aggregates
- Biofilm staining after accumulation ([2]; 500 nM in medium, 4 h, fluorescence microscope): successfully stained PAO1 biofilms
- Retention at biofilm after wash ([2]; after 4 h accumulation at 500 nM, 30 min wash, no compound): still visible at a lower intensity
